Assay results reported in ChEMBL document CHEMBL3991601, “The target landscape of clinical kinase drugs” (Science, 2017).
Activity calls are given as the source filed them. Cut-off read from the data, not from the text of the source, for most assays here: actives have a measured Kd and inactives only a lower limit.

Key:
[1] = target: BMP-2-inducible protein kinase (Homo sapiens, UniProt Q9NSY1)
[2] = target: Serine/threonine-protein kinase PAK 4 (Homo sapiens, UniProt O96013)
[3] = target: Tyrosine-protein kinase ABL1 (Homo sapiens, UniProt P00519)
[4] = target: T1, cGMP-dependent protein kinase 1 (Homo sapiens, UniProt Q13976)
T1 sequence (Q13976 whole entry): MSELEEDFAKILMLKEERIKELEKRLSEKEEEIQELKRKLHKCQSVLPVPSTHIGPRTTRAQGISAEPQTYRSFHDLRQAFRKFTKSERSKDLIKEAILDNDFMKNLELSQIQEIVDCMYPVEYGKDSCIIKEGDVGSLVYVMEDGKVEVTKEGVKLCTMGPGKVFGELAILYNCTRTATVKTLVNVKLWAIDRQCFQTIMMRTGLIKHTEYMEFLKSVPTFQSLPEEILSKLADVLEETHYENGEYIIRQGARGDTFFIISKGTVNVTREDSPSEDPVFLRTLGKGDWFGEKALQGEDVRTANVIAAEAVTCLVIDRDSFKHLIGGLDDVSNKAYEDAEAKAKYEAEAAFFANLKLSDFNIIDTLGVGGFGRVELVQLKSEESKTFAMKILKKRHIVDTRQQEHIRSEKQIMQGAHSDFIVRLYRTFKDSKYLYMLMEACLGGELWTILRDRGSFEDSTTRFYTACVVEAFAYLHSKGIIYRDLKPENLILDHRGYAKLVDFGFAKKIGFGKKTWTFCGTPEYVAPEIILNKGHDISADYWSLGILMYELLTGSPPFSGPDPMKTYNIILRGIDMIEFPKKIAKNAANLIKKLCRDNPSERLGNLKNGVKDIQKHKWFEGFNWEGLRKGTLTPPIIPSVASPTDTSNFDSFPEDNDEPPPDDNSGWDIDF

[5] = target: T2, Exosome RNA helicase MTR4 (Homo sapiens, UniProt P42285)
T2 sequence (P42285 whole entry): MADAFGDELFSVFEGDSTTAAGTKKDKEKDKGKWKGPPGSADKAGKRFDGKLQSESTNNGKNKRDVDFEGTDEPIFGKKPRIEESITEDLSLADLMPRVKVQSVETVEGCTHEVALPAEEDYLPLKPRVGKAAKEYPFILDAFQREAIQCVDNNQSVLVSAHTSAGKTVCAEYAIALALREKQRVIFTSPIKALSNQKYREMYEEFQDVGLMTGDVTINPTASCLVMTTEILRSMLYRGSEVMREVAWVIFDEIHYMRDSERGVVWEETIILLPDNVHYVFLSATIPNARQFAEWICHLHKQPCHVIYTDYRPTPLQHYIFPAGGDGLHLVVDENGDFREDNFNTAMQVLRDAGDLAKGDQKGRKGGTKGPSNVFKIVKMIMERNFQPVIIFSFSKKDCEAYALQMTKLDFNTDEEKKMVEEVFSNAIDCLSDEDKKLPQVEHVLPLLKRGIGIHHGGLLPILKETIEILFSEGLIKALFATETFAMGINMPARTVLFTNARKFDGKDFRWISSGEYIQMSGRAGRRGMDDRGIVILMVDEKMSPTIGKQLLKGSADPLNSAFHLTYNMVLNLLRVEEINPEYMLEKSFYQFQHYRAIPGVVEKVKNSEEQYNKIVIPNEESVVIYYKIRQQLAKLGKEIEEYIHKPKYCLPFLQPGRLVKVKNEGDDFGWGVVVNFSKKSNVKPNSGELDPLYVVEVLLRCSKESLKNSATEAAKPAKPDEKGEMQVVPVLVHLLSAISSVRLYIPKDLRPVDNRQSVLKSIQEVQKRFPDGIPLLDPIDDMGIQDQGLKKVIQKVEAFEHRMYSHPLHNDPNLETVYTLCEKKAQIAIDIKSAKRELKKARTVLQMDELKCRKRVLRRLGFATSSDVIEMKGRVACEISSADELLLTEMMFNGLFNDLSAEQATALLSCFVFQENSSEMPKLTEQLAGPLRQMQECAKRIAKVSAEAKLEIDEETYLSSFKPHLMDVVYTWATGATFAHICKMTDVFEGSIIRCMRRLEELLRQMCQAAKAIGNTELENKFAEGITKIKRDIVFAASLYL

[6] = target: Tyrosine-protein kinase Lck (Homo sapiens, UniProt P06239)
[7] = target: T3, Activin receptor type-1 (Homo sapiens, UniProt Q04771)
T3 sequence (Q04771 whole entry): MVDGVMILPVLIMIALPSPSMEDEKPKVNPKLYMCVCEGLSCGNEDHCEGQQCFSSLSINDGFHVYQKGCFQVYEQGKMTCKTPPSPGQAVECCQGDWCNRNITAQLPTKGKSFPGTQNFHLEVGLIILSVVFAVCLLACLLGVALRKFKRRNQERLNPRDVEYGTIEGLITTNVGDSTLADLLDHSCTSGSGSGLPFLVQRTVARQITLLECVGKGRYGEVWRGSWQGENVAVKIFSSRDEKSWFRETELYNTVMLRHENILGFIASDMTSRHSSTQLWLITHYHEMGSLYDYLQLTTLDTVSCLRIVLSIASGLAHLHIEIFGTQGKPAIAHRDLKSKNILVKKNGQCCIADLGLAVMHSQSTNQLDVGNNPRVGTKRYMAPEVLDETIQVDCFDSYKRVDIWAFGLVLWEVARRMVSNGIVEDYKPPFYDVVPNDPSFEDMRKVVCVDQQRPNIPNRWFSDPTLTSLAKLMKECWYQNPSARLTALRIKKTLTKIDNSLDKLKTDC

[8] = target: Ephrin type-A receptor 4 (Homo sapiens, UniProt P54764)
[9] = target: Serine/threonine-protein kinase N2 (Homo sapiens, UniProt Q16513)
[10] = target: T4, Interleukin-1 receptor-associated kinase 4 (Homo sapiens, UniProt Q9NWZ3)
T4 sequence (Q9NWZ3 whole entry): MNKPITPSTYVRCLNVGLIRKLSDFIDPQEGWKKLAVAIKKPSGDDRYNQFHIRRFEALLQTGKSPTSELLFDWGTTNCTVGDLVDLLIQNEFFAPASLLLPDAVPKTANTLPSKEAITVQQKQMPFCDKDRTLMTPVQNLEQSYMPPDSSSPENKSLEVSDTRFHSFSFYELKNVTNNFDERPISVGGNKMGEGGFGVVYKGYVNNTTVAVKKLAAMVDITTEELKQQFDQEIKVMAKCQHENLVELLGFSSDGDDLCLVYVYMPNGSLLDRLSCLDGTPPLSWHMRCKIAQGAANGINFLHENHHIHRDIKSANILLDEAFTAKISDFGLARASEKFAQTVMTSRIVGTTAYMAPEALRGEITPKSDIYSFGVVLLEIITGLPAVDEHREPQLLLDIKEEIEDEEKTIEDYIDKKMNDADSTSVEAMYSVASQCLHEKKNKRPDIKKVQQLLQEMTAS
Note: in the data inactive means no Kd found up to 30 µM.

BMP-2-inducible protein kinase, sequence (Q9NSY1 whole entry): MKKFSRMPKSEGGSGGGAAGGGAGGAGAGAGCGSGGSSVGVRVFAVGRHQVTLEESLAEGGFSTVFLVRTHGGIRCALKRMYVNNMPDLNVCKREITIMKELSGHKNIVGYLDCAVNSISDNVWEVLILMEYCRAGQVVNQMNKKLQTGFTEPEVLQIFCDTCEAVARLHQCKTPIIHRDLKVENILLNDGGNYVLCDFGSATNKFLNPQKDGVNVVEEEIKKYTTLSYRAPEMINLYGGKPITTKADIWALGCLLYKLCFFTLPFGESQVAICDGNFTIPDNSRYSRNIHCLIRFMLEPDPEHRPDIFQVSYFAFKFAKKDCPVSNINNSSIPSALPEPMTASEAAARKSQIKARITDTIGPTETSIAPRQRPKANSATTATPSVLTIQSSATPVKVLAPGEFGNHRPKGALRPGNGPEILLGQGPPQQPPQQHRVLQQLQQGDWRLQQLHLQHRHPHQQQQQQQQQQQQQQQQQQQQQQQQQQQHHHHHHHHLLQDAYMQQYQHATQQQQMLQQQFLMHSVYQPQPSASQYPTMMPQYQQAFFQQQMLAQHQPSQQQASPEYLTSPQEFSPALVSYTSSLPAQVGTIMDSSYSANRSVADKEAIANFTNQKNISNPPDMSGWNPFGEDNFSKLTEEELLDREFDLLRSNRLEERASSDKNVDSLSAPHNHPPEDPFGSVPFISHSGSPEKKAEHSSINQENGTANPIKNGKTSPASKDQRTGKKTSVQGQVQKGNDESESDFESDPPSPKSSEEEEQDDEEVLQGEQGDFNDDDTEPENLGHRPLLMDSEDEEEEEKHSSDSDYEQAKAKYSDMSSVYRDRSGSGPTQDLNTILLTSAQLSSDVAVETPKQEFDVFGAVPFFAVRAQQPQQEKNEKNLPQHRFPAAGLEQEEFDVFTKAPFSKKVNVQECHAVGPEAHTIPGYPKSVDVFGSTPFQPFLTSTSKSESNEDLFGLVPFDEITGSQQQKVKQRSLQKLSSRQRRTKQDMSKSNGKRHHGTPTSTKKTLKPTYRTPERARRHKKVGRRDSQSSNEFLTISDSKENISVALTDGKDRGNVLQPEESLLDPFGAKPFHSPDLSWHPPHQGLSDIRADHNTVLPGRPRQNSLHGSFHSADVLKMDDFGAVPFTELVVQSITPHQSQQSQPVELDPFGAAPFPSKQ
Tyrosine-protein kinase Lck, sequence (P06239 whole entry): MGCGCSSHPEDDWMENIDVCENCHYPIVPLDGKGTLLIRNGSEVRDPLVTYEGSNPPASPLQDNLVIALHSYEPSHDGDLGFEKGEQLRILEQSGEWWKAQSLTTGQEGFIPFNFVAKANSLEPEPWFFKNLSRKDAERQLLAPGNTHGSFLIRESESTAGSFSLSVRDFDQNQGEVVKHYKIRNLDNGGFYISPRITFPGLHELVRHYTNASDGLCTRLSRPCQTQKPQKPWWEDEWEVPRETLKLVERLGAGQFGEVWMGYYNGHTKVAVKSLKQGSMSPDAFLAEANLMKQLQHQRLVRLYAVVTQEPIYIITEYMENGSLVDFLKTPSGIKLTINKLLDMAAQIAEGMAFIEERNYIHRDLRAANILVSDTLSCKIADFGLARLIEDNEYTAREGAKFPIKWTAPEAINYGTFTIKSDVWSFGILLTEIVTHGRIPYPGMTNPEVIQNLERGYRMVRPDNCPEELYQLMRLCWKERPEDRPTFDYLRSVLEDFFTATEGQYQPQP
Tyrosine-protein kinase ABL1, sequence (P00519 whole entry): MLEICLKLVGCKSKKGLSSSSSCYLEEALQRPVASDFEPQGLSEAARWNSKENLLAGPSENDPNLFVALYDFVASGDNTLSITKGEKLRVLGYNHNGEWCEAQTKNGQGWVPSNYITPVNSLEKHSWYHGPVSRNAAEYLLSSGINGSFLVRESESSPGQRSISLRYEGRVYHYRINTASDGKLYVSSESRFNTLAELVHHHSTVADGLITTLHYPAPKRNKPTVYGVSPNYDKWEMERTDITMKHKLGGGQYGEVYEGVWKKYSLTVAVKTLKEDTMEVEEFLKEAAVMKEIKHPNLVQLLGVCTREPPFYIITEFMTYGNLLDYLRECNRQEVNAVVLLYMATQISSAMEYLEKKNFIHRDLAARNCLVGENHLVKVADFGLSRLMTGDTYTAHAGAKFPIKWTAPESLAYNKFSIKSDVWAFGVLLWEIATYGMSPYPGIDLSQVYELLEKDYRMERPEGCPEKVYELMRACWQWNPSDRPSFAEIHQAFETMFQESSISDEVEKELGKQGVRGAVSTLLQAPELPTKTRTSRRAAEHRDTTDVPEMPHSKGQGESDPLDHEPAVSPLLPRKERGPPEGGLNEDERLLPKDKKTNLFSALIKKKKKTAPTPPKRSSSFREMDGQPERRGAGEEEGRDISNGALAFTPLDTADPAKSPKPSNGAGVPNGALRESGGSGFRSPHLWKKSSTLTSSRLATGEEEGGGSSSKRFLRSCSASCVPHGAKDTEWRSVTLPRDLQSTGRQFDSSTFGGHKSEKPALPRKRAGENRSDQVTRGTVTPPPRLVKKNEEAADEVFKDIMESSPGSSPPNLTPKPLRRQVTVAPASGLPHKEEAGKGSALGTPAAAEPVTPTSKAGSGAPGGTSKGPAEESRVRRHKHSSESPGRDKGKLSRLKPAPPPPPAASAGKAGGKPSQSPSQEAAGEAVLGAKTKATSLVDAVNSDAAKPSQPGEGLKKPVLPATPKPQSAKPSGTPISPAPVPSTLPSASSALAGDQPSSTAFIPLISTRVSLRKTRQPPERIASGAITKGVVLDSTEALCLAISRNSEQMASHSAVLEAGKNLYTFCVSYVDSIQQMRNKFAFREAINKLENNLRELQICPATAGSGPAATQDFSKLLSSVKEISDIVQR
Serine/threonine-protein kinase N2, sequence (Q16513 whole entry): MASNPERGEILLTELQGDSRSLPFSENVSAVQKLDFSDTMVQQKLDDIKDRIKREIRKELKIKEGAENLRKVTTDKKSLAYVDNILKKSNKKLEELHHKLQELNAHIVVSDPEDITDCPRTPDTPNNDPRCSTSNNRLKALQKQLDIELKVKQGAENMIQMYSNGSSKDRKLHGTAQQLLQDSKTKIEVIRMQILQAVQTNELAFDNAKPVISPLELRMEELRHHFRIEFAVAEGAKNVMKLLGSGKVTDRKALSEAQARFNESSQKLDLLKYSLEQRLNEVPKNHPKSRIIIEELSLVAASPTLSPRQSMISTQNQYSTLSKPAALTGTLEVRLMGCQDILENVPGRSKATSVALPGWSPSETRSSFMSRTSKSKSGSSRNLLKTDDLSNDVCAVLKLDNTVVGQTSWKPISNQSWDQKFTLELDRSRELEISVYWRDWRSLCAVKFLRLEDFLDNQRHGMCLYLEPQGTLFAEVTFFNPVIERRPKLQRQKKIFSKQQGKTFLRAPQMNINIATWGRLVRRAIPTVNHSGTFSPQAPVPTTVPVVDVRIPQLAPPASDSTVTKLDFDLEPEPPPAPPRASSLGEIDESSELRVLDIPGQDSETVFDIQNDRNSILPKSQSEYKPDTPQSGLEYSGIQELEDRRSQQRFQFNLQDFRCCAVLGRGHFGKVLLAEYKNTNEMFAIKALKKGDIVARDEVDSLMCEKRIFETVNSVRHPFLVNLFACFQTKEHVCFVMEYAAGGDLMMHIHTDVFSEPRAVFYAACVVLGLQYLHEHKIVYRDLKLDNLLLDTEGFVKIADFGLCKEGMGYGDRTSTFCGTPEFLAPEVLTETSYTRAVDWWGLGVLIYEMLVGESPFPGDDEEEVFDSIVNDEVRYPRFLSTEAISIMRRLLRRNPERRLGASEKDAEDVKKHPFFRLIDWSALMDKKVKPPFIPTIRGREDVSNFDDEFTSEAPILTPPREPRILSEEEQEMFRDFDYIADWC
Ephrin type-A receptor 4, sequence (P54764 whole entry): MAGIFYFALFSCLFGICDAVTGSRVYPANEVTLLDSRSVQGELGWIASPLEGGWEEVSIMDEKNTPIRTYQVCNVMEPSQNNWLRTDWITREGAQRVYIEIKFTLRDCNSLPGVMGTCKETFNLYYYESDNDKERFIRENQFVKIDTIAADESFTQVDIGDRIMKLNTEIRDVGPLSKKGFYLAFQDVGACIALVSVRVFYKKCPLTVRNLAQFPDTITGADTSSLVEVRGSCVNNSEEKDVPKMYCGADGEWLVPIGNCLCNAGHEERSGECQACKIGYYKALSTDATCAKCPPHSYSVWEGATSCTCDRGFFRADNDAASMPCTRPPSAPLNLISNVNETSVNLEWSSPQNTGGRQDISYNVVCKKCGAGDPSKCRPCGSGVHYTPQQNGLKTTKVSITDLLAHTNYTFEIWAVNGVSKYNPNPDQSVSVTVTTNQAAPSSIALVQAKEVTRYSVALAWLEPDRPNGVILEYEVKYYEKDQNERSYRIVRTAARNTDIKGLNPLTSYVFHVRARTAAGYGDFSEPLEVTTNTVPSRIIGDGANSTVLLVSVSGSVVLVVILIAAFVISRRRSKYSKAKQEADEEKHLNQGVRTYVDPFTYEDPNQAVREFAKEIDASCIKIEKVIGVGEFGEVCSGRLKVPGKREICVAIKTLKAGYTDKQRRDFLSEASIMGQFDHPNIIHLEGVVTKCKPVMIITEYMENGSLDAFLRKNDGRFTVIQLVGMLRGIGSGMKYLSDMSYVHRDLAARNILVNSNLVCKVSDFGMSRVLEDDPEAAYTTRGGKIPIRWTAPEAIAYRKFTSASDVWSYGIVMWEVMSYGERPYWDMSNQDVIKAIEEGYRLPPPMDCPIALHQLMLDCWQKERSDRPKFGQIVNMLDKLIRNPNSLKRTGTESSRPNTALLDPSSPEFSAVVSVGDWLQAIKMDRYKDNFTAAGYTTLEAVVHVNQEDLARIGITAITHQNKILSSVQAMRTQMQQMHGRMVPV

For `O=C(Nc1ccc(-c2ccnc(Nc3ccc(N4CCOCC4)cc3)n2)cc1)C1CCCN1` (stereo not given) [XL-019], the Kd [1] was 0.02 µM (active), the Kd [2] was > 30 µM (inactive) and the Kd [3] was > 30 µM (inactive). The Kd [4] was > 30 µM (inactive), the Kd [5] was > 30 µM (inactive) and the Kd [6] was > 30 µM (inactive). For the same compound, the Kd [7] was > 30 µM (inactive), the Kd [8] was > 30 µM (inactive) and the Kd [9] was > 30 µM (inactive). For the same compound, the Kd [10] was > 30 µM (inactive).
